13 molecules from patent US9546157B2, “Asymmetric piperidinyl-substituted ureas as medicines” (Helsinn Healthcare SA, priority 2014, dated 2017) can be followed below.

pEC50, pIC50: −log10 of the molar value. Bounds are passed on as bounds.

For orientation: pEC50 means the EC50 on a negative log10 scale, so that one unit is a factor of ten. The term pIC50 denotes the IC50 on a negative log10 scale, so that one unit is a factor of ten. For orientation: inhibition in vivo means the drop in the measured response relative to a control, in per cent.

Data set [1] has as its target T1, GHSR1a (Homo sapiens, UniProt Q92847).
T1 construct: expressed in transfected cells; host or cells: HEK293
The data set is described as follows: Calcium FLIPR assay, GHSR-1a agonism. The class given is cell-based. Also noted: Emax: unit not given here. The settings on record: HEK293/GHSR1a cells. The method in brief: (§1)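 Relative fluorescence read-out (FLIPR) of intracellular calcium in HEK293/GHSR1a cells. For antagonist mode, compound and 10 nM ghrelin were co-added at t=20 sec, and inhibition of the ghrelin response over 2 minutes gave IC50. Agonist mode: compound alone at t=20 sec, response tracked 2 minutes; EC50 from dose-response.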

Data set [2] is described as follows: Metabolic Stability (M = Mouse). The class given is in vitro ADME.
The subject of a further data set is C57BL/6J mice. Nature of the data set: Food intake test in mouse (GHSR1a antagonists). The data set is classed as in vivo. The settings on record: for inhibition in vivo at 10 mg/kg: Mus musculus. The protocol:
Male C57BL/6J mice, 18-22 g body weight, were fasted overnight (16 h before compound administration) and placed in a regular light dark cycle (6:00-18:00 light/18:00-6:00 dark). After 1 wk acclimation, animals were sorted into two groups (n=6 each, 2 per cage) based on body weight. Animals in group one were be treated with vehicle and animals in group 2 were treated with the test agent (n=6 for each group). The cumulative food intake was evaluated at 1, 2, 4, 8 and 24 hrs after drug or vehicle treatment. Food intake was measured by subtracting uneaten food from the initial premeasured food.

The nature of data set [3]: Metabolic Stability (H = Human). The class given is in vitro ADME.
Data set [4] deals with T1, GHSR1a. The data set is described as follows: Calcium FLIPR assay, GHSR-1a antagonism (reduction of ghrelin response). The data set is classed as cell-based. The settings on record: HEK293/GHSR1a cells, ghrelin 10 nM. The method in brief:
as §1

T1 sequence (Q92847 whole entry): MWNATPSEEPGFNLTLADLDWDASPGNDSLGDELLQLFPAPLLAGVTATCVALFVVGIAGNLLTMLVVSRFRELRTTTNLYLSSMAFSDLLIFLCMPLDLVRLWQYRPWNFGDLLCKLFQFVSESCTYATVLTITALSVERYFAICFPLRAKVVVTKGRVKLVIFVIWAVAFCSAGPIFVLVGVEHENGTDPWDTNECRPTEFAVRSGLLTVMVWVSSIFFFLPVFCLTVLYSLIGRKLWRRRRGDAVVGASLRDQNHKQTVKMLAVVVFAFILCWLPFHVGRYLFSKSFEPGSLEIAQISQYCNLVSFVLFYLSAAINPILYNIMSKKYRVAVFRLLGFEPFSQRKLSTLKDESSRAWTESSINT

As to `CC(NC(=O)N(C)C1CCN(C)CC1)c1ccc(-c2cncc(C#N)c2)c(Cl)c1Cl` (centres unmarked) [Compound H0613, 3-(1-(2,3-dichloro-4-(5-cyanopyridin-3-yl)phenyl)ethyl)-1-methyl-1-(1-methylpiperidin-4-yl)urea], at GHSR1a [1], the pEC50 is less than 4.52. Further, the “Metabolic Stability M” value in data set [2] is “High H High M”. The “Mouse Food Intake, result in words” value in the data set with C57BL/6J mice (IP + ANAM 30 mpk PO, at 1 h) was “inhibition”; in the data set on C57BL/6J mice (PO, dose not given), “inhibition at 1 h”; with C57BL/6J mice (i.p. 10 mg/kg), “NSE”. Also, in data set [3], the “Metabolic Stability H” value was “High H High M”. The pIC50 on GHSR1a [4] was 7.70.

As to `CC(NC(=O)N(C)C1CCN(C)CC1)c1ccc(-c2cncc(F)c2)c(Cl)c1Cl` (centres unmarked) [Compound H0614, 3-(1-(2,3-dichloro-4-(5-fluoropyridin-3-yl)phenyl)ethyl)-1-methyl-1-(1-methylpiperidin-4-yl)urea], the pEC50 on GHSR1a [1] was less than 4.52. For the same molecule, in data set [2], the “Metabolic Stability M” value was “High H High M”. Further, in the data set with C57BL/6J mice (PO, dose not given), the “Mouse Food Intake, result in words” value was “No IP done, PO: NSE”. For the same molecule, in data set [3], the “Metabolic Stability H” value is “High H High M”. At GHSR1a [4], the pIC50 was 7.92.

As to `CC(NC(=O)N(C)C1CCN(C)CC1)c1ccc(-c2ncccn2)c(Cl)c1Cl` (centres unmarked) [Compound H0619, 3-(1-(2,3-dichloro-4-(pyrimidin-2-yl)phenyl)ethyl)-1-methyl-1-(1-methylpiperidin-4-yl)urea], at GHSR1a [1], the pEC50 is 7.41. Moreover, the “Metabolic Stability M” value in data set [2] was “High H High M”. Further, the inhibition in vivo at 10 mg/kg in the data set with C57BL/6J mice (ip, 1 h, i.p. 10 mg/kg) is 34%; in the data set on C57BL/6J mice (ip, 2 h, i.p. 10 mg/kg) it was 34%. Also, in data set [3], the “Metabolic Stability H” value is “High H High M”. Also, the pIC50 at GHSR1a [4] was 7.89.

As to `CC(NC(=O)N(O)C1CCN(C)CC1)c1ccc(C(F)F)c(Cl)c1Cl` (centres unmarked) [Compound H0621, 3-(1-(2,3-dichloro-4-(difluoromethyl)phenyl)ethyl)-1-hydroxy-1-(1-methylpiperidin-4-yl)urea], at GHSR1a [1], the pEC50 was 8.70 and the Emax came to 3896. For the same molecule, the “Metabolic Stability M” value in data set [2] is listed as “High H High M”. In addition, in the data set with C57BL/6J mice (i.p., dose not given), the “Mouse Food Intake, result in words” value was “No Effect”. Besides, the “Metabolic Stability H” value in data set [3] is listed as “High H High M”. Besides, the pIC50 on GHSR1a [4] was less than 4.52.

As for `Cc1cncc(-c2ccc(C(C)NC(=O)N(C)C3CCN(C)CC3)c(Cl)c2Cl)c1` (centres unmarked) [Compound H0639, 3-(1-(2,3-dichloro-4-(5-methylpyridin-3-yl)phenyl)ethyl)-1-methyl-1-(1-methylpiperidin-4-yl)urea], the negative-log EC50 (pEC50) on GHSR1a [1] was less than 4.52. Besides, the “Metabolic Stability M” value in data set [2] is given as “Medium H Medium M”. For the same molecule, in the data set with C57BL/6J mice (i.p. 10 mg/kg), the “Mouse Food Intake, result in words” value is recorded as “NSE (10 mg/kg)”. In data set [3], the “Metabolic Stability H” value is reported as “Medium H Medium M”. In addition, the pIC50 on GHSR1a [4] was 7.32.

As for `COc1ncc(-c2ccc(C(C)NC(=O)N(C)C3CCN(C)CC3)c(Cl)c2Cl)cn1` (centres unmarked) [Compound H0649, 3-(1-(2,3-dichloro-4-(2-methoxypyrimidin-5-yl)phenyl)ethyl)-1-methyl-1-(1-methylpiperidin-4-yl)urea], at GHSR1a [1], the pEC50 was 7.19 and the Emax is 1400. Besides, the “Metabolic Stability M” value in data set [2] is reported as “High H High M”. Further, the inhibition in vivo at 10 mg/kg in the data set on C57BL/6J mice (ip, 1 h, i.p. 10 mg/kg) amounted to 48%. This molecule also registered an inhibition in vivo at 10 mg/kg in the data set with C57BL/6J mice (ip, 2 h, i.p. 10 mg/kg) of 48%. In data set [3], the “Metabolic Stability H” value is “High H High M”. On GHSR1a [4], the pIC50 is 7.74.

Regarding `CC(=O)c1ccc(-c2ccc(C(C)NC(=O)N(C)C3CCN(C)CC3)c(Cl)c2Cl)s1` (centres unmarked) [Compound H0655, 3-(1-(4-(5-acetylthiophen-2-yl)-2,3-dichlorophenyl)ethyl)-1-methyl-1-(1-methylpiperidin-4-yl)urea], the pEC50 on GHSR1a [1] is less than 4.52. Moreover, the “Metabolic Stability M” value in data set [2] is reported as “Medium H Medium M”. The same molecule had an inhibition in vivo at 10 mg/kg in the data set with C57BL/6J mice (ip, 1 h, i.p. 10 mg/kg) of 70%. Besides, the “Metabolic Stability H” value in data set [3] is listed as “Medium H Medium M”. Also, on GHSR1a [4], the negative logarithm of the IC50 (pIC50) is 7.92.

With `CC(NC(=O)N(O)C1CCN(C)CC1)c1ccc(-c2cncc(C#N)c2)c(Cl)c1Cl` (centres unmarked) [Compound H0667, 3-(1-(2,3-dichloro-4-(5-cyanopyridin-3-yl)phenyl)ethyl)-1-hydroxy-1-(1-methylpiperidin-4-yl)urea], at GHSR1a [1], the pEC50 is 8.52 and the Emax turned out to be 4887. Also, the “Metabolic Stability M” value in data set [2] is recorded as “High H High M”. In the data set on C57BL/6J mice (ip, 1 h, i.p. 10 mg/kg), this molecule came in with an inhibition in vivo at 10 mg/kg of 76%. In data set [3], the “Metabolic Stability H” value is given as “High H High M”. Further, the pIC50 at GHSR1a [4] was more than 9.00.

Turning to `CN1CCC(N(C)C(=O)NC(c2ccc(-c3cncnc3)c(Cl)c2Cl)C(F)(F)F)CC1` (centres unmarked) [Compound H0686, 3-(1-(2,3-dichloro-4-(pyrimidin-5-yl)phenyl)-2,2,2-trifluoroethyl)-1-methyl-1-(1-methylpiperidin-4-yl)urea], at GHSR1a [1], the pEC50 was less than 4.52. For the same molecule, in data set [2], the “Metabolic Stability M” value was “High”. Moreover, the inhibition in vivo at 10 mg/kg in the data set with C57BL/6J mice (ip, 2 h, i.p. 10 mg/kg) was determined as 61%; in the data set on C57BL/6J mice (ip, 4 h, i.p. 10 mg/kg), 61%. For the same molecule, the “Mouse Food Intake, result in words” value in the data set on C57BL/6J mice (PO, dose not given) is “NSE”. In data set [3], the “Metabolic Stability H” value is recorded as “Medium”. For the same molecule, the negative-log IC50 (pIC50) at GHSR1a [4] was 7.85.

For the molecule `CC(NC(=O)N(C)C1CCN(C)CC1)c1ccc(-c2ccc(C(N)=O)s2)c(Cl)c1Cl` (centres unmarked) [Compound H0691, 5-(2,3-dichloro-4-(1-(3-methyl-3-(1-methylpiperidin-4-yl)ureido)ethyl)phenyl)thiophene-2-carboxamide], the pEC50 on GHSR1a [1] was less than 4.52. Moreover, the “Metabolic Stability M” value in data set [2] is listed as “High H High M”. In the data set on C57BL/6J mice (ip, 2 h, i.p. 10 mg/kg), this molecule showed an inhibition in vivo at 10 mg/kg of 62%. Moreover, the “Mouse Food Intake, result in words” value in the data set on C57BL/6J mice (PO, dose not given) was “not active”. The “Metabolic Stability H” value in data set [3] was “High H High M”. Moreover, the pIC50 at GHSR1a [4] is 8.30.

With `CC(NC(=O)N(C)C1CCN(C)CC1)c1ccc(-c2cnccn2)c(Cl)c1Cl` (centres unmarked) [Compound H0700, 3-(1-(2,3-dichloro-4-(pyrazin-2-yl)phenyl)ethyl)-1-methyl-1-(1-methylpiperidin-4-yl)urea], the pEC50 on GHSR1a [1] was less than 4.52. Also, in data set [2], the “Metabolic Stability M” value is on record as “High H High M”. The inhibition in vivo at 10 mg/kg in the data set with C57BL/6J mice (1 h, Fed mice, 10 mg/kg) came to 71%; in the data set with C57BL/6J mice (ip, 2 h, i.p. 10 mg/kg) it was 41%. In addition, the “Metabolic Stability H” value in data set [3] is reported as “High H High M”. The pIC50 at GHSR1a [4] was 8.15.

On to `CC(NC(=O)N(C)C1CCN(C)CC1)c1ccc(-c2cncc(N)c2)c(Cl)c1Cl` (centres unmarked) [Compound H0704, 3-(1-(4-(5-aminopyridin-3-yl)-2,3-dichlorophenyl)ethyl)-1-methyl-1-(1-methylpiperidin-4-yl)urea], for which the pEC50 on GHSR1a [1] was less than 4.52. In data set [2], the “Metabolic Stability M” value was “Medium”. This molecule returned an inhibition in vivo at 10 mg/kg in the data set with C57BL/6J mice (ip, 2 h, i.p. 10 mg/kg) of 32%. In data set [3], the “Metabolic Stability H” value is reported as “High”. The pIC50 at GHSR1a [4] is 7.72.

For the molecule `CN1CCC(N(C)C(=O)NC(CC2CC2)c2ccc(-c3cnccn3)c(Cl)c2Cl)CC1` (centres unmarked) [Compound H0722, 3-(2-cyclopropyl-1-(2,3-dichloro-4-(pyrazin-2-yl)phenyl)ethyl)-1-methyl-1-(1-methylpiperidin-4-yl)urea], the pEC50 on GHSR1a [1] is less than 4.52. In addition, in data set [2], the “Metabolic Stability M” value was “High H High M”. Besides, in the data set on C57BL/6J mice (ip, 1 h, i.p. 10 mg/kg), 10 mg/kg produced 90% inhibition in vivo. The “Mouse Food Intake, result in words” value in the data set on C57BL/6J mice (PO 30 mg/kg) was “NSE”. In data set [3], the “Metabolic Stability H” value is “High H High M”. The pIC50 at GHSR1a [4] was 7.89.
